Key:
[1] = after HMB is fed; cited from earlier work
[2] = healthy young or old adults; cited from earlier work
[3] = pH of HMBFA and buffered HMBFA; format: physicochemical
Excerpt: In most instances, the HMB utilized in clinical studies and marketed as an ergogenic aid has been in the calcium salt form. Recent advances have allowed the HMB to be manufactured in a free acid form for use human and animal uses, and preferably as a nutritional supplement or incorporated into foodstuffs. […] The pH of HMBFA is <3.
Preparation of Buffered HMB in the Free Acid Form (HMBFA) Briefly, 400 g HMBFA (TSI lot 12111036) was weigh into a one liter beaker and then 37.8 g of with potassium carbonate (K2CO3) was added to the HMBFA. A stir bar was added and the mixture was stirred for 60 h. The resulting pH was approximately 4.5. Alternatively, the reaction may be accelerated by mixing water (35 g) with potassium carbonate (37) g and then adding HMBFA (400 g).

SMILES: CC(C)(O)CC(=O)O [HMB, β-hydroxy-β-methylbutyrate]
- loss of HMB to urine [1]: 20-50%
- side effects [2]: no side effects

SMILES: CC(C)(O)CC(=O)O [HMBFA, β-hydroxy-β-methylbutyrate]
- pH [3]: < 3

Source: US12161654B2, “Stability of vitamin D in β-hydroxy-β-methylbutyrate (HMB)” (Metabolic Technologies, LLC, priority 2018, dated 2024)
